“And” between values parts separate entries of the source, which are not always exact repeats. Equal entries are not always repeated. Inconclusive results and toxic doses are left out. Rule as the data show it: active = T/C of 150% or more; inactive = T/C below 125%.
Tested on: L1210 leukemia ip in BDF1 mice, survival T/C
Experiment: NCI In Vivo Anticancer Drug Screen. Data for tumor model L1210 Leukemia (intraperitoneal) in B6D2F1 (BDF1) mice
Details: endpoint: mean survival time, higher = longer survival
Method in brief: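 Tumor was transplanted into mice, which were then dosed with test compound or vehicle alone. Survival was recorded for each group, and the treated figure was expressed relative to the control figure.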

[1] = dose: 100.0 mg/kg/injection, schedule: Q01DX001 (ip), vehicle: saline with Tween-80
[2] = dose: 200.0 mg/kg/injection, schedule: Q01DX001 (ip), vehicle: saline with Tween-80
[3] = dose: 400.0 mg/kg/injection, schedule: Q01DX001 (ip), vehicle: saline with Tween-80
[4] = dose: 100.0 mg/kg/injection, schedule: Q01DX009 (ip), vehicle: saline with Tween-80
[5] = dose: 200.0 mg/kg/injection, schedule: Q01DX009 (ip), vehicle: saline with Tween-80
[6] = dose: 400.0 mg/kg/injection, schedule: Q01DX009 (ip), vehicle: saline with Tween-80

Measured: T/C

O=S(=O)(CCO)CCS(=O)(=O)CCO
inactive: dose: 75.0 mg/kg/injection, schedule: Q01DX009 (ip), vehicle: carboxymethylcellulose (CMC) 92 % of control | dose: 150.0 mg/kg/injection, schedule: Q01DX009 (ip), vehicle: carboxymethylcellulose (CMC) 102 % of control | dose: 300.0 mg/kg/injection, schedule: Q01DX009 (ip), vehicle: carboxymethylcellulose (CMC) 92 % of control

O=C(O)C1C(c2ccccc2)C2(c3ccccc3)C(=O)C1(c1ccccc1)C(c1ccccc1)=C2c1ccccc1 (stereo not drawn)
inactive: dose: 25.0 mg/kg/injection, schedule: Q01DX001 (ip), vehicle: saline with Tween-80 98 % of control | dose: 50.0 mg/kg/injection, schedule: Q01DX001 (ip), vehicle: saline with Tween-80 88 % of control | [1] 91 % of control | [2] 90 % of control | [3] 90 % of control

CC(C)(C)c1cc(OCC2CO2)c(C(C)(C)C)cc1OCC1CO1 (stereo not drawn)
inactive: dose: 100.0 mg/kg/injection, schedule: Q01DX001 (ip), vehicle: saline 101 % of control | dose: 200.0 mg/kg/injection, schedule: Q01DX001 (ip), vehicle: saline 101 % of control | dose: 400.0 mg/kg/injection, schedule: Q01DX001 (ip), vehicle: saline 92 % of control

Nc1ncnc2c1cnn2Cc1ccc(Cl)cc1
inactive: dose: 50.0 mg/kg/injection, schedule: Q01DX009 (ip), vehicle: saline 100 % of control | dose: 100.0 mg/kg/injection, schedule: Q01DX001 (ip), vehicle: carboxymethylcellulose (CMC) 98 % of control and 103 % of control | dose: 100.0 mg/kg/injection, schedule: Q01DX009 (ip), vehicle: saline 88 % of control | dose: 100.0 mg/kg/injection, schedule: Q04DX003 (ip), vehicle: carboxymethylcellulose (CMC) 97 % of control | dose: 200.0 mg/kg/injection, schedule: Q01DX001 (ip), vehicle: carboxymethylcellulose (CMC) 93 % of control and 115 % of control | dose: 200.0 mg/kg/injection, schedule: Q04DX003 (ip), vehicle: carboxymethylcellulose (CMC) 95 % of control | dose: 400.0 mg/kg/injection, schedule: Q01DX001 (ip), vehicle: carboxymethylcellulose (CMC) 96 % of control and 121 % of control

COc1c2ccoc2c(OCC=C(C)C)c2oc(=O)ccc12
inactive: dose: 100.0 mg/kg/injection, schedule: Q01DX009 (ip), vehicle: other 98 % of control | dose: 100.0 mg/kg/injection, schedule: Q04DX003 (ip), vehicle: saline sonified 107 % of control | dose: 200.0 mg/kg/injection, schedule: Q01DX009 (ip), vehicle: other 111 % of control | dose: 200.0 mg/kg/injection, schedule: Q04DX003 (ip), vehicle: saline sonified 102 % of control | dose: 400.0 mg/kg/injection, schedule: Q01DX009 (ip), vehicle: other 95 % of control | dose: 400.0 mg/kg/injection, schedule: Q04DX003 (ip), vehicle: saline sonified 97 % of control

Cc1ccc(C)c(NC(=O)NCCN(C)c2ccccc2)c1
inactive: [1] 96 % of control | [4] 87 % of control | dose: 100.0 mg/kg/injection, schedule: Q04DX002 (ip), vehicle: saline with Tween-80 89 % of control and 91 % of control | [2] 93 % of control | [5] 89 % of control | dose: 200.0 mg/kg/injection, schedule: Q04DX002 (ip), vehicle: saline with Tween-80 89 % of control and 91 % of control | [3] 92 % of control | [6] 101 % of control | dose: 400.0 mg/kg/injection, schedule: Q04DX002 (ip), vehicle: saline with Tween-80 89 % of control and 91 % of control

CC1CC(=O)C=C(c2ccccc2)O1 (stereo not drawn)
inactive: dose: 75.0 mg/kg/injection, schedule: Q01DX009 (ip), vehicle: Klucel (hydroxypropylcellulose) (HPC) 101 % of control | dose: 150.0 mg/kg/injection, schedule: Q01DX009 (ip), vehicle: Klucel (hydroxypropylcellulose) (HPC) 101 % of control

O=C(COc1cccc(Cl)c1Cl)NCc1ccc(Cl)cc1
inactive: [4] 100 % of control | [5] 97 % of control | [6] 96 % of control

From PubChem BioAssay AID248 (DTP/NCI, 2004)
